“Also recorded” adds a separate entry of the source. Read-outs that look alike come from different tables or passages of the source.
Key:
Format in all cases: biochemical
[1] = biological target: M. tuberculosis lumazine synthase (recombinant homopentameric) (Mycobacterium tuberculosis, UniProt P9WHE9); settings: for inhibitory activity in words: lumazine synthase inhibition, qualitative statement
[2] = biological target: M. tuberculosis riboflavin synthase (recombinant) (Mycobacterium tuberculosis, UniProt P9WK35); experiment: Kinetic assay of riboflavin synthase inhibitors, M. tuberculosis enzyme
Chain of M. tuberculosis riboflavin synthase (recombinant) (P9WK35 whole entry): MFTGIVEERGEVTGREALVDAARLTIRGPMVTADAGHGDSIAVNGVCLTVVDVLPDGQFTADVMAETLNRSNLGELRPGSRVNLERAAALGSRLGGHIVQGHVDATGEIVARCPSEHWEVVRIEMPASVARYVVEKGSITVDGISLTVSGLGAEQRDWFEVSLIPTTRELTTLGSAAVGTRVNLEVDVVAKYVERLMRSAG

[3] = biological target: T1, S. pombe lumazine synthase (recombinant homopentameric) (Schizosaccharomyces pombe, UniProt Q9UUB1); experiment: Kinetic assay of lumazine synthase inhibitors, S. pombe enzyme
T1 sequence (Q9UUB1 1-159): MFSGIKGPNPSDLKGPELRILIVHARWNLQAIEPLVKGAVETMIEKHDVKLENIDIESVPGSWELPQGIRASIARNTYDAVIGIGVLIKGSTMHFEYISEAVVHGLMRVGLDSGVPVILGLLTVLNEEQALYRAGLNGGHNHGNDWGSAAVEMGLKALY

[4] = biological target: E. coli riboflavin synthase (recombinant) (Escherichia coli, UniProt P0AFU8); experiment: Kinetic assay of riboflavin synthase inhibitors, E. coli enzyme
Chain of E. coli riboflavin synthase (recombinant) (P0AFU8 whole entry): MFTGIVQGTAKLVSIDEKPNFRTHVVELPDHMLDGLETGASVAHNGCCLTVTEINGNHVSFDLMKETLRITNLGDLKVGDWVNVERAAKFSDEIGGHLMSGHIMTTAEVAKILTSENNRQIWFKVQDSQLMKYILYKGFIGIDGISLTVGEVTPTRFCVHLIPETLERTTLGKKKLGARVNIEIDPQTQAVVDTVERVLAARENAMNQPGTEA

[5] = substrate 2 constant, substrate 1 varied, Tris·HCl pH 7.0
[6] = substrate 3 varied, Tris·HCl pH 7.0

Chain of M. tuberculosis lumazine synthase (recombinant homopentameric) (P9WHE9 whole entry): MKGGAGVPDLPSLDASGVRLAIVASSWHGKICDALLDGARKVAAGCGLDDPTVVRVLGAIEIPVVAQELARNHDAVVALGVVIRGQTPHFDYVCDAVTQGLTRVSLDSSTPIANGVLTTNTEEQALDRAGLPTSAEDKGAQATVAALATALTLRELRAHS

Row | SMILES | Mechanism of inhibition [1] | Kcat (rate constant ES → E + P) ([1]; pH 7) [m^−1] | Kis (ES + I ⇌ ESI) [1, 5] [µM] | Ks (substrate dissociation constant, E + S ⇌ ES) [1, 5] [µM] | Mechanism of inhibition [2] | Kcat (rate constant ES → E + P) [2, 6] [m^−1] | Kis (ES + I ⇌ ESI) [2, 6] [µM] | Ks (substrate dissociation constant, E + S ⇌ ES) [2, 6] [µM] | inhibitory activity in words [1] | Kcat (rate constant ES → E + P) [1, 5] [m^−1] | Ki (E + I ⇌ EI) [1, 5] [µM] | Ki (E + I ⇌ EI) [2, 6] | Mechanism of inhibition [3] | Kcat (rate constant ES → E + P) [3, 5] [m^−1] | Kis (ES + I ⇌ ESI) [3, 5] [µM] | Ks (substrate dissociation constant, E + S ⇌ ES) [3, 5] [µM] | Mechanism of inhibition [4] | Kcat (rate constant ES → E + P) [4, 6] [m^−1] | Kis (ES + I ⇌ ESI) [4, 6] [µM] | Ks (substrate dissociation constant, E + S ⇌ ES) [4, 6] [µM]
1 | CCC(=O)Nc1c(SC[C@H](O)[C@H](O)[C@H](O)CO)[nH]c(=O)[nH]c1=O [Compound 49] | Competitive | 0.65 ± 0.01 | 128 | 11 ± 1 | Uncompetitive | 0.76 ± 0.01 | > 1000 | 10 ± 1 |  |  |  |  |  |  |  |  |  |  |  | 
2 | C=C(C)C(=O)Nc1c(NC[C@H](O)[C@H](O)[C@H](O)CO)[nH]c(=O)[nH]c1=O [Compound 56, N-[2,4-Dioxo-6-((2S,3S,4R)-2,3,4,5-tetrahydroxypentylamino]-1,2,3,4-tetrahydropyrimidin-5-yl)methacrylamide] | Uncompetitive |  | > 1000 | 19 ± 2 | Partial | 0.57 ± 0.02 | 35 ± 14 | 7.0 ± 0.6 | inactive | 0.52 ± 0.02 | > 1000 |  |  |  |  |  |  |  |  | 
3 | C=C(C)C(=O)Nc1c(OC[C@H](O)[C@H](O)[C@H](O)CO)[nH]c(=O)[nH]c1=O [Compound 46] | Uncompetitive | 0.57 ± 0.01 | >1000 | 12 ± 1 | Uncompetitive | 0.58 ± 0.01 | >1000 | 9.2 ± 0.6 |  |  | > 1000 |  |  |  |  |  |  |  |  | 
4 | O=C(CC(F)(F)F)Nc1c(NC[C@H](O)[C@H](O)[C@H](O)CO)[nH]c(=O)[nH]c1=O [Compound 66, N-(2,4-Dioxo-6-((2S,3S,4R)-2,3,4,5-tetrahydroxypentylamino)-1,2,3,4-tetrahydropyrimidin-5-yl)-3,3,3-trifluoropropanamide] | Partial |  | 309 ± 125 | 20 ± 1 | Uncompetitive | 0.18 ± 0.1 | > 1000 | 6.6 ± 0.3 |  | 0.76 ± 0.02 |  |  |  |  |  |  |  |  |  | 
5 | CC1(O)C(=O)Nc2c([nH]c(=O)[nH]c2=O)N1C[C@H](O)[C@H](O)[C@H](O)CO (stereo partly drawn) [Compound 69, 7-Hydroxy-7-methyl-8-[(2S,3S,4R)-2,3,4,5-tetrahydroxypentyl)-7,8-dihydropteridin-2,4,6(1H, 3H, 5H)-trione] | Competitive |  |  | 19 ± 2 | Competitive | 0.67 ± 0.02 |  | 8.9 ± 0.7 |  | 0.59 ± 0.02 |  | submicromolar |  |  |  |  |  |  |  | 
6 | CCOC(=O)C(=O)Nc1c(OC[C@H](O)[C@H](O)[C@H](O)CO)[nH]c(=O)[nH]c1=O [Compound 36, Ethyl 2-(2,4-dioxo-6-((2S,3R,4R)-2,3,4,5-tetrahydroxypentyloxy)1,2,3,4-tetrahydropyrimidin-5-ylamino)-2-oxoacetate] | Uncompetitive | 0.26 ± 0.01 | >1000 | 34 ± 5 | Uncompetitive | 0.25 ± 0.01 | >1000 | 5.0 ± 0.5 | completely inactive; also recorded: totally inactive |  | > 1000 |  | Uncompetitive | 2.7 ± 0.1 | >1000 | 6.4 ± 0.6 | Uncompetitive | 5.8 ± 0.2 | >1000 | 3.0 ± 0.3
7 | C=C(C)C(=O)Nc1c(Cl)[nH]c(=O)[nH]c1=O [Compound 78, N-(6-Chloro-2,4-dioxo-1,2,3,4-tetrahydropyrimidin-5-yl)methacrylamide] | Uncompetitive |  | >1000 | 18 ± 2 | Uncompetitive | 0.58 ± 0.4 | 694 ± 88 | 8.6 ± 0.4 |  | 0.53 ± 0.03 |  |  |  |  |  |  |  |  |  | 
8 | O=C(CCl)Nc1c(NC[C@H](O)[C@H](O)[C@H](O)CO)[nH]c(=O)[nH]c1=O [Compound 63, 2-Chloro-N-(2,4-dioxo-6-((2S,3S,4R)-2,3,4,5-tetrahydroxypentylamino)-1,2,3,4-tetrahydropyrimidin-5-yl)acetamide] | Partial |  | 53 ± 12 | 24 ± 2 | Uncompetitive | 0.66 ± 0.01 | > 1000 | 8.6 ± 0.4 |  | 0.62 ± 0.02 |  |  |  |  |  |  |  |  |  | 
9 | CCC(=O)Nc1c(OC[C@H](O)[C@H](O)[C@H](O)CO)[nH]c(=O)[nH]c1=O [Compound 43] | Uncompetitive | 0.39 ± 0.00 |  | 18 ± 2 | Uncompetitive | 0.21 ± 0.00 | >1000 | 4.4 ± 0.2 | totally inactive |  |  |  |  |  |  |  |  |  |  | 
10 | CC(Cl)C(=O)Nc1c(NC[C@H](O)[C@H](O)[C@H](O)CO)[nH]c(=O)[nH]c1=O (stereo partly drawn) [Compound 60, 2-Chloro-N-(2,4-dioxo-6-((2S,3S,4R)-2,3,4,5-tetrahydroxypentylamino)1,2,3,4-tetrahydropyrimidin-5-yl)propanamide] | Competitive |  |  | 17 ± 1 | Competitive | 0.72 ± 0.01 |  | 11 ± 1 |  | 0.85 ± 0.03 |  |  |  |  |  |  |  |  |  | 
11 | C=C(C)C(=O)Nc1c(SC[C@H](O)[C@H](O)[C@H](O)CO)[nH]c(=O)[nH]c1=O [Compound 51] | Competitive | 0.92 ± 0.03 |  | 17 ± 1 | Uncompetitive | 0.84 ± 0.01 | > 1000 | 10 ± 0 |  |  |  |  |  |  |  |  |  |  |  | 
12 | CC(C)C(=O)Nc1c(OC[C@H](O)[C@H](O)[C@H](O)CO)[nH]c(=O)[nH]c1=O [Compound 40] | Uncompetitive | 0.59 ± 0.01 | 766 ± 97 | 16 ± 1 | Uncompetitive | 0.84 ± 0.02 | 698 ± 108 | 9.3 ± 0.6 | totally inactive |  |  |  |  |  |  |  |  |  |  | 

From article PMC3444172 (The Journal of organic chemistry, 2012)
